Measurements published in ChEMBL document CHEMBL1201862, “PubChem BioAssay data set” (2004).
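A five-concentration, 48-hour dose response in 96-well plates underlies each endpoint, interpolated linearly between surrounding concentrations. GI50: concentration for 50% inhibition of growth.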 Activity calls are given as the source filed them. No stated cut-off is given here; in the data, active = GI50 up to about 1.1 µM and inactive = higher.

Key:
Test in all cases: inhibition of tumour cell growth, NCI panel, 48 h
786-0 = test system: 786-0
A498 = test system: A498
A549 = test system: A549
ACHN = test system: ACHN
CAKI-1 = test system: CAKI-1
CCRF-CEM = test system: CCRF-CEM
COLO 205 = test system: COLO 205
DLD-1 = test system: DLD-1
DMS-114 = test system: DMS-114
DMS-273 = test system: DMS-273
EKVX = test system: EKVX
HCC 2998 = test system: HCC 2998
HCT-116 = test system: HCT-116
HCT-15 = test system: HCT-15
HOP-18 = test system: HOP-18
HOP-62 = test system: HOP-62
HOP-92 = test system: HOP-92
IGROV-1 = test system: IGROV-1
K562 = test system: K562
KM-20L2 = test system: KM-20L2
KM12 = test system: KM12
LOX IMVI = test system: LOX IMVI
LXFL 529 = test system: LXFL 529
M14 = test system: M14
M19-MEL = test system: M19-MEL
MOLT-4 = test system: MOLT-4
Malme-3M = test system: Malme-3M
NCI-H226 = test system: NCI-H226
NCI-H460 = test system: NCI-H460
NCI-H522 = test system: NCI-H522
OVCAR-3 = test system: OVCAR-3
OVCAR-4 = test system: OVCAR-4
OVCAR-5 = test system: OVCAR-5
OVCAR-8 = test system: OVCAR-8
RXF 393 = test system: RXF 393
RXF 631 = test system: RXF 631
SF-268 = test system: SF-268
SF-295 = test system: SF-295
SF-539 = test system: SF-539
SK-MEL-28 = test system: SK-MEL-28
SK-MEL-2 = test system: SK-MEL-2
SK-MEL-5 = test system: SK-MEL-5
SK-OV-3 = test system: SK-OV-3
SN12C = test system: SN12C
SNB-19 = test system: SNB-19
SNB-75 = test system: SNB-75
SNB-78 = test system: SNB-78
SR = test system: SR
SW-620 = test system: SW-620
TK-10 = test system: TK-10
U-251 = test system: U-251
UACC-257 = test system: UACC-257
UACC-62 = test system: UACC-62
UO-31 = test system: UO-31
XF498 = test system: XF498
HL-60 = test system: HL-60
HT-29 = test system: HT-29
NCI-H23 = test system: NCI-H23
RPMI-8226 = test system: RPMI-8226

Compound: COc1ccc2[nH]c3c(c2c1)[C@H](c1ccccc1)C[C@@H]1C(=O)N(c2ccccc2)C(=O)[C@H]31
- GI50 (786-0): 17.5 µM (inactive)
- GI50 (A498): 21.4 µM (inactive)
- GI50 (A549): 13.3 µM (inactive)
- GI50 (ACHN): 22.1 µM (inactive)
- GI50 (CAKI-1): 25.6 µM (inactive)
- GI50 (CCRF-CEM): 30.9 µM (inactive)
- GI50 (COLO 205): > 100 µM (inactive)
- GI50 (DLD-1): 59.7 µM (inactive)
- GI50 (DMS-114): 29.1 µM (inactive)
- GI50 (DMS-273): 47.8 µM (inactive)
- GI50 (EKVX): 89.1 µM (inactive)
- GI50 (HCC 2998): 35.5 µM (inactive)
- GI50 (HCT-116): 4.95 µM (inactive)
- GI50 (HCT-15): 41.7 µM
- GI50 (HOP-18): 2.54 µM (inactive)
- GI50 (HOP-62): 22 µM (inactive)
- GI50 (HOP-92): 37.3 µM (inactive)
- GI50 (IGROV-1): 26.9 µM (inactive)
- GI50 (K562): 47.9 µM (inactive)
- GI50 (KM-20L2): 64.9 µM (inactive)
- GI50 (KM12): 17.5 µM (inactive)
- GI50 (LOX IMVI): 33.2 µM (inactive)
- GI50 (LXFL 529): 43.2 µM (inactive)
- GI50 (M14): 42.3 µM (inactive)
- GI50 (M19-MEL): > 100 µM (inactive)
- GI50 (MOLT-4): 15.1 µM (inactive)
- GI50 (Malme-3M): 45.5 µM (inactive)
- GI50 (NCI-H226): 19.4 µM (inactive)
- GI50 (NCI-H460): 22.4 µM (inactive)
- GI50 (NCI-H522): 31.3 µM (inactive)
- GI50 (OVCAR-3): 23.8 µM (inactive)
- GI50 (OVCAR-4): 16.7 µM (inactive)
- GI50 (OVCAR-5): > 100 µM (inactive)
- GI50 (OVCAR-8): 4.93 µM (inactive)
- GI50 (RXF 393): 16 µM (inactive)
- GI50 (RXF 631): 45.1 µM (inactive)
- GI50 (SF-268): > 100 µM (inactive)
- GI50 (SF-295): 48.4 µM (inactive)
- GI50 (SF-539): > 100 µM (inactive)
- GI50 (SK-MEL-28): > 100 µM (inactive)
- GI50 (SK-MEL-2): 55.1 µM (inactive)
- GI50 (SK-MEL-5): 72.9 µM (inactive)
- GI50 (SK-OV-3): 23.3 µM (inactive)
- GI50 (SN12C): 12.1 µM (inactive)
- GI50 (SNB-19): 29.2 µM (inactive)
- GI50 (SNB-75): 20.7 µM (inactive)
- GI50 (SNB-78): 44.5 µM (inactive)
- GI50 (SR): 31.6 µM (inactive)
- GI50 (SW-620): 20.7 µM (inactive)
- GI50 (TK-10): 33.7 µM (inactive)
- GI50 (U-251): 18 µM (inactive)
- GI50 (UACC-257): > 100 µM (inactive)
- GI50 (UACC-62): > 100 µM (inactive)
- GI50 (UO-31): 22.9 µM (inactive)
- GI50 (XF498): 23 µM (inactive)

Compound: COC(=O)C(C(=O)C(N)=O)c1csc(-n2nc(-c3ccccc3)cc2-c2ccccc2)n1 (centres undefined)
- GI50 (786-0): > 31.6 µM (inactive)
- GI50 (A498): > 31.6 µM (inactive)
- GI50 (A549): > 31.6 µM (inactive)
- GI50 (ACHN): > 31.6 µM (inactive)
- GI50 (CAKI-1): 10.6 µM (inactive)
- GI50 (CCRF-CEM): 25.1 µM (inactive)
- GI50 (COLO 205): 26.8 µM (inactive)
- GI50 (DLD-1): > 31.6 µM (inactive)
- GI50 (DMS-114): 12.8 µM (inactive)
- GI50 (DMS-273): > 31.6 µM (inactive)
- GI50 (EKVX): 13.9 µM (inactive)
- GI50 (HCC 2998): > 31.6 µM (inactive)
- GI50 (HCT-116): > 31.6 µM (inactive)
- GI50 (HCT-15): > 31.6 µM
- GI50 (HL-60): 26.1 µM (inactive)
- GI50 (HOP-18): 15.6 µM (inactive)
- GI50 (HOP-62): > 10 µM (inactive)
- GI50 (HOP-92): > 67 µM (inactive)
- GI50 (HT-29): 41.9 µM (inactive)
- GI50 (IGROV-1): 17.3 µM (inactive)
- GI50 (K562): 23.8 µM (inactive)
- GI50 (KM-20L2): 27.4 µM (inactive)
- GI50 (KM12): 22.6 µM (inactive)
- GI50 (LOX IMVI): > 88.1 µM (inactive)
- GI50 (LXFL 529): > 31.6 µM (inactive)
- GI50 (M14): > 31.6 µM (inactive)
- GI50 (M19-MEL): > 31.6 µM (inactive)
- GI50 (MOLT-4): 25.5 µM (inactive)
- GI50 (Malme-3M): > 31.6 µM (inactive)
- GI50 (NCI-H226): 20.9 µM (inactive)
- GI50 (NCI-H23): > 100 µM (inactive)
- GI50 (NCI-H460): > 31.6 µM (inactive)
- GI50 (NCI-H522): 27.6 µM (inactive)
- GI50 (OVCAR-3): 43.2 µM (inactive)
- GI50 (OVCAR-4): > 31.6 µM (inactive)
- GI50 (OVCAR-5): > 100 µM (inactive)
- GI50 (OVCAR-8): 30.4 µM (inactive)
- GI50 (RPMI-8226): > 31.6 µM (inactive)
- GI50 (RXF 393): > 31.6 µM (inactive)
- GI50 (RXF 631): > 10 µM (inactive)
- GI50 (SF-268): > 31.6 µM (inactive)
- GI50 (SF-295): > 87.9 µM (inactive)
- GI50 (SF-539): > 31.6 µM (inactive)
- GI50 (SK-MEL-28): > 31.6 µM (inactive)
- GI50 (SK-MEL-2): > 31.6 µM (inactive)
- GI50 (SK-MEL-5): 28.7 µM (inactive)
- GI50 (SK-OV-3): > 31.6 µM (inactive)
- GI50 (SN12C): > 10 µM (inactive)
- GI50 (SNB-19): 12.5 µM (inactive)
- GI50 (SNB-75): > 31.6 µM (inactive)
- GI50 (SNB-78): > 31.6 µM (inactive)
- GI50 (SR): > 10 µM (inactive)
- GI50 (SW-620): 4.4 µM (inactive)
- GI50 (TK-10): 21.5 µM (inactive)
- GI50 (U-251): 24.5 µM (inactive)
- GI50 (UACC-257): 19.8 µM (inactive)
- GI50 (UACC-62): > 31.6 µM (inactive)
- GI50 (UO-31): 13.5 µM (inactive)
- GI50 (XF498): 25.2 µM (inactive)
